The values below come from ChEMBL document CHEMBL1201862, “PubChem BioAssay data set” (2004).

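These data come from cells grown in 96-well plates and exposed to compound for 48 hours at five concentrations. GI50: concentration for 50% inhibition of growth.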 Activity calls are given as the source filed them. Cut-off read from the data, not from the text of the source: active = GI50 up to about 1.1 µM and inactive = higher.

Some test systems named below: Malme-3M; SW-620; OVCAR-5; NCI-H522; M14; HCT-116; SN12C; OVCAR-4; U-251; SF-268; NCI-H23; SK-OV-3; MOLT-4; NCI-H460; SNB-75; HCC 2998; OVCAR-3.
Holding throughout (assay): inhibition of tumour cell growth, NCI panel, 48 h

For `O=C(O)CNS(=O)(=O)c1ccc(NCc2ccccc2)cc1`, the GI50 with Malme-3M, with SW-620, in the test with OVCAR-5, in the test with NCI-H522, in the test on M14 and in the test on HCT-116 was > 100 µM (inactive) each time. Besides, the GI50 with SN12C, with OVCAR-4, in the test with U-251, in the test with SF-268, with NCI-H23 and in the test on SK-OV-3 was > 100 µM (inactive) in each case. Also, the GI50 with MOLT-4, with NCI-H460, with SNB-75 and in the test with HCC 2998 was > 100 µM (inactive) in each case.

Consider `CCC1CN2CCc3c([nH]c4ccccc34)C2C[C@@H]1CC(=O)N(C)C` (stereo partly specified), for which the GI50 in the test on Malme-3M, in the test with SW-620, in the test on OVCAR-5, in the test on NCI-H522, with M14 and with HCT-116 was > 100 µM (inactive) throughout. In addition, the GI50 is > 100 µM (inactive) in the test with SN12C; > 100 µM (inactive) in the test with OVCAR-4; > 100 µM (inactive) with U-251; > 100 µM (inactive) in the test with SF-268; > 100 µM (inactive) in the test on NCI-H23; 39.6 µM (inactive) in the test on SK-OV-3. In addition, the GI50 in the test on MOLT-4 was > 100 µM (inactive); in the test with OVCAR-3, > 100 µM (inactive); in the test on NCI-H460 it was > 100 µM (inactive); in the test with SNB-75, 21.4 µM (inactive); in the test with HCC 2998, > 100 µM (inactive).

For `O=[N+]([O-])c1cccc(C2=NOC3C4CCC(C4)C23)c1` (stereo unspecified), the GI50 with Malme-3M is > 100 µM (inactive); with SW-620, 22.3 µM (inactive); with OVCAR-5 it was > 100 µM (inactive); in the test with NCI-H522, > 100 µM (inactive); in the test on M14 it was > 100 µM (inactive); in the test on HCT-116, > 100 µM (inactive). The GI50 in the test with SN12C, with OVCAR-4, in the test on U-251, with SF-268, in the test on NCI-H23 and with SK-OV-3 was > 100 µM (inactive) throughout. In addition, the GI50 in the test on MOLT-4, with OVCAR-3, in the test on NCI-H460, with SNB-75 and with HCC 2998 was > 100 µM (inactive) in each case.

As to `C#CCN(N=O)C(=O)NC(CCCCNC(=O)OCc1ccccc1)C(=O)OCc1ccccc1` (stereo unspecified), the GI50 with Malme-3M was 28.2 µM (inactive); in the test on SW-620, 23.3 µM (inactive); in the test on OVCAR-5 it was 24.5 µM (inactive); with NCI-H522 it was 13.9 µM (inactive); in the test on M14 it was 21.4 µM (inactive); with HCT-116, 33.8 µM (inactive). Also, the GI50 was 28.4 µM (inactive) with SN12C; 24.7 µM (inactive) with OVCAR-4; 27.9 µM (inactive) in the test on U-251; 47 µM (inactive) in the test on SF-268; 67.6 µM (inactive) in the test on NCI-H23; > 100 µM (inactive) in the test on SK-OV-3. The GI50 in the test on MOLT-4 is 16.8 µM (inactive); in the test with OVCAR-3, 36.1 µM (inactive); in the test on NCI-H460, 61 µM (inactive); with SNB-75, 33.5 µM (inactive); with HCC 2998, 31.5 µM (inactive).

Consider `N#CC1(C#N)C(C#N)(C#N)C12CCCCCC2`, for which the GI50 with Malme-3M is 16.4 µM (inactive); in the test with SW-620 it was 1.95 µM (inactive); with OVCAR-5, 16.4 µM (inactive); in the test on NCI-H522, 2.77 µM (inactive); in the test on M14, 2.81 µM (inactive); with HCT-116, 5.01 µM (inactive). Moreover, the GI50 is 18.1 µM (inactive) in the test on SN12C; 16.3 µM (inactive) in the test on OVCAR-4; 14.1 µM (inactive) in the test with U-251; 22.5 µM (inactive) in the test with SF-268; 16 µM (inactive) with NCI-H23; > 64.4 µM (inactive) with SK-OV-3. Also, the GI50 in the test on MOLT-4 was 5.45 µM (inactive); in the test on OVCAR-3, 16.1 µM (inactive); in the test with NCI-H460, > 47.1 µM (inactive); with SNB-75, 22.9 µM (inactive); with HCC 2998, 19.6 µM (inactive).

With `COC(=O)CCC(NC(=S)N/N=C(\C)c1cnc2ccccc2n1)C(=O)OC` (stereo unspecified), the GI50 was 41.3 µM (inactive) in the test with Malme-3M; 20.8 µM (inactive) in the test on SW-620; 16.3 µM (inactive) in the test with OVCAR-5; 11.2 µM (inactive) with NCI-H522; 30.8 µM (inactive) in the test on M14; 18.3 µM (inactive) in the test with HCT-116. Besides, the GI50 is 60.1 µM (inactive) in the test on SN12C; 25.9 µM (inactive) with OVCAR-4; 43.2 µM (inactive) with U-251; 29.7 µM (inactive) in the test with SF-268; 58.3 µM (inactive) in the test with NCI-H23; 76.9 µM (inactive) in the test with SK-OV-3. Moreover, the GI50 is 15.6 µM (inactive) with MOLT-4; 42.8 µM (inactive) with OVCAR-3; 45.9 µM (inactive) in the test with NCI-H460; 47.4 µM (inactive) in the test with SNB-75; 32.1 µM (inactive) with HCC 2998.

For `CC1=NN(c2ccccc2)C(=O)C1=C1SCCS1`, the GI50 was > 67.6 µM (inactive) in the test on Malme-3M; > 38.3 µM (inactive) with SW-620; > 100 µM (inactive) in the test with OVCAR-5; 43 µM (inactive) in the test with NCI-H522; > 79.4 µM (inactive) with M14; > 48 µM (inactive) in the test on HCT-116. Moreover, the GI50 in the test on SN12C was > 83 µM (inactive); in the test with OVCAR-4, > 100 µM (inactive); with U-251, > 53.2 µM (inactive); in the test with SF-268 it was > 94.6 µM (inactive); in the test with NCI-H23, > 100 µM (inactive); in the test on SK-OV-3 it was > 100 µM (inactive). Further, the GI50 with MOLT-4 was 15 µM (inactive); with OVCAR-3 it was 34.9 µM (inactive); with NCI-H460, 50.7 µM (inactive); with SNB-75, > 88.1 µM (inactive); with HCC 2998, > 87.1 µM (inactive).

As for `Cc1cc(Cl)ccc1NC(=O)C(=O)Cc1occc(=O)c1O`, the GI50 in the test on Malme-3M, with SW-620, in the test with OVCAR-5, in the test on NCI-H522, in the test with M14 and in the test with HCT-116 was > 100 µM (inactive) each time. The GI50 in the test on SN12C, with OVCAR-4, in the test with U-251, with SF-268, in the test on NCI-H23 and with SK-OV-3 was > 100 µM (inactive) throughout. Also, the GI50 in the test on MOLT-4, with NCI-H460, in the test with SNB-75 and in the test with HCC 2998 was > 100 µM (inactive) throughout.

As for `COc1ccc(/C=C\c2cc(OC)c3c(c2)OCO3)c(O)c1O`, the GI50 with Malme-3M was 13.4 µM (inactive); in the test with SW-620, 8.3 µM (inactive); in the test on OVCAR-5 it was 26.7 µM (inactive); in the test on NCI-H522, 1.7 µM (inactive); with M14, 3.56 µM (inactive); with HCT-116, 6.95 µM (inactive). The GI50 was 15 µM (inactive) with SN12C; 4.52 µM (inactive) in the test on OVCAR-4; 6.05 µM (inactive) in the test with U-251; 4.47 µM (inactive) in the test on SF-268; 4.98 µM (inactive) in the test with NCI-H23; 18.6 µM (inactive) in the test on SK-OV-3. The GI50 in the test with MOLT-4 was 6.35 µM (inactive); in the test with OVCAR-3, 4.78 µM (inactive); with NCI-H460, 5.37 µM (inactive); with SNB-75, 0.0256 µM (active); with HCC 2998 it was 21.5 µM (inactive).

Turning to `NCCSc1nc(N)c2ncn(C3OC(CO)C(O)C3O)c2n1` (stereo unspecified), the GI50 with Malme-3M, with SW-620, with OVCAR-5, with NCI-H522, with M14 and in the test with HCT-116 was > 100 µM (inactive) throughout. Also, the GI50 in the test on SN12C, in the test on OVCAR-4, in the test with U-251, with SF-268, in the test on NCI-H23 and with SK-OV-3 was > 100 µM (inactive) throughout. In addition, the GI50 in the test with MOLT-4, in the test with OVCAR-3, with NCI-H460, with SNB-75 and with HCC 2998 was > 100 µM (inactive) in each case.

For the molecule `COc1ccc2nc(-c3ccc(OCc4ccccc4)cc3)ccc2c1`, the GI50 in the test with Malme-3M, in the test on SW-620, in the test on OVCAR-5, with NCI-H522, in the test with M14 and in the test on HCT-116 was > 100 µM (inactive) in each case. For the same molecule, the GI50 in the test on SN12C, in the test with OVCAR-4, in the test with SF-268, in the test on NCI-H23, with SK-OV-3 and with MOLT-4 was > 100 µM (inactive) in each case. Moreover, the GI50 in the test with OVCAR-3, in the test with NCI-H460, in the test with SNB-75 and in the test with HCC 2998 was > 100 µM (inactive) in each case.

Take `CCOP(=O)(OCC)C(C(=O)OC)C(=O)C(=O)Nc1c(C)cc(Br)cc1C` (stereo unspecified): the GI50 in the test on Malme-3M, in the test on SW-620, in the test on OVCAR-5, in the test with NCI-H522, with M14 and with HCT-116 was > 100 µM (inactive) each time. The GI50 with SN12C, in the test with OVCAR-4, with U-251, in the test on SF-268, in the test with NCI-H23 and with SK-OV-3 was > 100 µM (inactive) each time. Moreover, the GI50 in the test with MOLT-4, in the test on OVCAR-3, in the test with NCI-H460, with SNB-75 and in the test with HCC 2998 was > 100 µM (inactive) each time.
